In patent US11203610B2, “2′3′ cyclic dinucleotides with phosphonate bond activating the sting adaptor protein” (INSTITUTE OF ORGANIC CHEMISTRY AND BIOCHEMISTRY ASCR, V.V.I., priority 2017, dated 2021):

Legend:
WT STING [1] = target: T1, WT STING (Homo sapiens, UniProt Q86WV6, H232R); assay: Differential Scanning Fluorimetry with WT STING; type: binding; design: truncated human WT STING or AQ STING (amino acid residues 140-343); 8xHis (N, cleaved yes); SUMO (N, cleaved yes); made in house; host or cells: E. coli Rosetta-gami B (DE3); conditions: thermal shift vs STING apoprotein; 150 μM CDN; 0.1 mg/ml truncated human WT STING; SYPRO Orange; read-out: DSF ΔTm (° C.) WT STING
Description: (§1) WT STING and AQ STING Proteins
(§2) Purified PCR products were cleaved with restriction enzymes BamHI (cat. #R0136S, NEB, Ipswich, USA) and NotI (cat. #R0189S, NEB, Ipswich, USA) and cloned into the pSUMO vector linearized with the identical enzymes.
(§3) The resin was poured into a chromatography column, washed with 50 ml buffer A (50 mmol·l^−1 TrisCl (pH 8.0), 800 mmol·l^−1 NaCl, 3 mmol·l^−1 β-mercaptol; 10% glycerol; 20 mmol·l^−1 imidazole) and 8-His-SUMO tagged STING proteins were eluted with 15 ml buffer A containing 300 mmol·l^−1 imidazole. […] Proteins were concentrated with Amicon® Ultra-15 10 K device (cat. #UFC901008, Merck Millipore, Billerica, USA) and flash frozen in liquid N2.
(§4) Differential Scanning Fluorimetry with WT STING and AQ STING
(§5) 20 μL solutions of the reaction mixtures were pipetted in triplicates into 96 well optical reaction plates and thermal denaturation of samples were performed on real time PCR cycler (LightCycler® 480 Instrument II—Roche, Basel, Switzerland). The first derivative of the thermal denaturation curves was performed to calculate denaturing temperatures of STING—CDN complexes and STING apoproteins. The thermal shift for each CDN was calculated by subtracting the average denaturing temperature of STING apoprotein from the average denaturing temperature of STING CDN complex.
Target sequence in this assay (Q86WV6 140-343 H232R): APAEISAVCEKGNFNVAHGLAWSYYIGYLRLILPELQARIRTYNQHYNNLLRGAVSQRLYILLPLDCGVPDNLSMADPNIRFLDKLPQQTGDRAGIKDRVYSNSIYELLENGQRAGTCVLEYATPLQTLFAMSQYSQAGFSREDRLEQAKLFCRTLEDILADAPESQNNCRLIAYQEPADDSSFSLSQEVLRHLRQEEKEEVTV

WT STING [2] = target: T1, WT STING; assay: Digitonin assay using 293T wtSTING-FL reporter cells; type: cell-based; conditions: 293T wtSTING-FL cells; 30 minutes in Digitonin buffer, then 5 hours; ISRE firefly luciferase reporter; 8-point dose-response curve; read-out: Digitonin assay EC50 (μmol · l^−1) WT STING
From the text: ISRE Reporter Plasmid (pGL64.27-4xISRE)
Two complementary oligonucleotides of the sequence […] […] […] […] […] The oligonucleotides were mixed in equal molar amounts, hybridized, and cleaved by restriction endonucleases HindIII (cat. #. R0104S, NEB, Ipswich, USA) and BglII (cat. #R0144S, NEB, Ipswich, USA). Ultimately, they were ligated into plasmid pGL4.27 (cat. #E6651, Promega, Madison, USA) linearized with the same enzymes. As result the sequence with four ISRE sites was placed upstream of the minimum promoter of firefly luciferase reporter gene.
After 5 minutes incubation at room temperature (RT), 250 μL of the mixture was added dropwise to the cells in one well. Cells were incubated 36 hours at 37° C. with 5% CO2, and then detached with 0.05% Trypsin and 0.22 g/L EDTA (both cat. #L0941, Biowest, Riverside, USA).
Transfected cells were seeded onto poly-D-lysine coated six well plates at density 50,000 cells per 1 cm^2 in DMEM medium with high glucose containing 10% heat inactivated FBS, 30 g/mL blasticidin (cat. #ant-bl-05, InvivoGen, San Diego, USA), 0.06 mg/ml Penicillin G and 0.1 mg/ml Streptomycin Sulfate (both cat. #. L0018, Biowest, Riverside, USA). The medium was replenished every 3-4 days until visible colonies of cells resistant to blasticidin were formed.
Blasticidin resistant cells stably expressing WT STING were further transfected with […] plasmid following the same procedure as described above. […] Homogeneous culture of stably double transfected cells was prepared by limiting dilution of cells in 96 well plates and wells with cells were selected that originated from a single cell.
The medium was removed next day and three fold serial dilutions of compounds in Digitonin buffer containing 50 mmol·l^−1 HEPES (cat. #H3375, Sigma Aldrich, Czech Republic) pH 7.0, 100 mmol·l^−1 KCl, 3 mmol·l^−1 MgCl2, 0.1 mmol·l^−1 DTT (cat. #D0632, Sigma Aldrich, Czech Republic), 85 mmol·l^−1 Sucrose (cat. #S7903, Sigma Aldrich, Czech Republic), 0.2% BSA (cat. #A2153, Sigma Aldrich, Czech Republic), 1 mmol·l^−1 ATP (cat. #A1852, Sigma Aldrich, Czech Republic), 0.1 mmol·l^−1 GTP (cat. #G8877, Sigma Aldrich, Czech Republic), and 10 μg/mL Digitonin A (cat. #D141, Sigma Aldrich, Czech Republic) were added to the cells. The buffer was removed after 30 minutes incubation at 37° C. with 5% CO2, the cells were washed once with 100 μl of cultivation medium, and 100 μl of medium was added to each well. The plates with cells were incubated for 5 hours at 37° C. with 5% CO2, 50 μl of the medium was removed and 30 μl of ONE-Glo™ Luciferase Assay System reagent (cat. #E6120, Promega, Madison, USA) was added to each well. Luminescence was read on Synergy H1 (Biotek, Winooski, USA).
Target sequence in this assay (Q86WV6 whole entry H232R, the tested form may be a part): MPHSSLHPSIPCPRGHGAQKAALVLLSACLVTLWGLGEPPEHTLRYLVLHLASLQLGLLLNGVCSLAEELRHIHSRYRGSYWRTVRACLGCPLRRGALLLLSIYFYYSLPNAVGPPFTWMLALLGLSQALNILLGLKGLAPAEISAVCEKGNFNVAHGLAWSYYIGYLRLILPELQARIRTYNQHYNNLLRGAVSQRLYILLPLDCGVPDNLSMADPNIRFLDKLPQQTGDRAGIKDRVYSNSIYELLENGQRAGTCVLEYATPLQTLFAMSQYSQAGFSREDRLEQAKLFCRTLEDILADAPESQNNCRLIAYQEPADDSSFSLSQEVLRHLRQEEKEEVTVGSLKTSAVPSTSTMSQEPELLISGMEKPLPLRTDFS

AQ STING (G230A-R293Q) = target: T2, AQ STING (G230A-R293Q) (Homo sapiens, UniProt Q86WV6, G230A/H232R/R293Q); assay: Differential Scanning Fluorimetry with AQ STING; type: binding; conditions: thermal shift vs STING apoprotein; 150 μM CDN; 0.1 mg/ml truncated human AQ STING; SYPRO Orange; read-out: DSF ΔTm (° C.) AQ STING
T2 construct: truncated human WT STING or AQ STING (amino acid residues 140-343); 8xHis (N, cleaved yes); SUMO (N, cleaved yes); made in house; host or cells: E. coli Rosetta-gami B (DE3)
T2 sequence (Q86WV6 140-343 G230A/H232R/R293Q): as the sequence (Q86WV6 140-343 H232R) above, with G91A, R154Q counted along it
Description: as §1, §2, §3, §4, §5

SMILES | ΔTm at 150 µM (WT STING [1]) | EC50 (WT STING [2]) | ΔTm at 150 µM (AQ STING (G230A-R293Q))
Nc1nc2c(ncn2[C@@H]2O[C@@H]3COP(=O)(O)O[C@@H]4[C@@H](OCP(=O)(O)O[C@@H]2[C@@H]3O)O[C@@H](n2cnc3c(N)ncnc32)[C@@H]4O)c(=O)[nH]1 [Compound 40, (1R,6R,8R,9R,10S,15R,17R,18R)-17-(2-amino-6-oxo-6,9-dihydro-1H-purin-9-yl)-8-(6-amino-9H-purin-9-yl)-3,9,12,18-tetrahydroxy-2,5,7,11,13,16-hexaoxa-3λ^5,12λ^5-diphosphatricyclo[13.2.1.0^6,10]octadecane-3,12-dione] | 10.8 °C | 20 nM | 18.7 °C
Nc1nc2c(ccn2[C@@H]2O[C@@H]3COP(=O)(O)O[C@@H]4[C@@H](OCP(=O)(O)O[C@@H]2[C@@H]3O)O[C@@H](n2cnc3c(N)ncnc32)[C@@H]4O)c(=O)[nH]1 [Compound 41, (1R,6R,8R,9R,10S,15R,17R,18R)-17-{2-amino-4-oxo-3H,4H,7H-pyrrolo[2,3-d]pyrimidin-7-yl}-8-(6-amino-9H-purin-9-yl)-3,9,12,18-tetrahydroxy-2,5,7,11,13,16-hexaoxa-3λ^5,12λ^5-diphosphatricyclo[13.2.1.0^6,10]octadecane-3,12-dione] | 1.7 °C | 1900 nM | 9.1 °C
Cc1cn([C@@H]2O[C@@H]3COP(=O)(O)O[C@@H]4[C@@H](OCP(=O)(O)O[C@@H]2[C@@H]3O)O[C@@H](n2cnc3c(N)ncnc32)[C@@H]4O)c2nc(N)[nH]c(=O)c12 [Compound 42, (1R,6R,8R,9R,10S,15R,17R,18R)-17-{2-amino-5-methyl-4-oxo-3H,4H,7H-pyrrolo[2,3-d]pyrimidin-7-yl}-8-(6-amino-9H-purin-9-yl)-3,9,12,18-tetrahydroxy-2,5,7,11,13,16-hexaoxa-3λ^5,12λ^5-diphosphatricyclo[13.2.1.0^6,10]octadecane-3,12-dione] | 0.1 °C | 45400 nM | 2.1 °C
Nc1nc2c(ncn2[C@@H]2O[C@@H]3OCP(=O)(O)O[C@H]4[C@@H](O)[C@H](n5cnc6c(N)ncnc65)O[C@@H]4COP(=O)(O)O[C@@H]2[C@@H]3O)c(=O)[nH]1 [Compound 43, (1R,6R,8R,9R,10S,15R,17R,18S)-17-(2-amino-6-oxo-6,9-dihydro-1H-purin-9-yl)-8-(6-amino-9H-purin-9-yl)-3,9,12,18-tetrahydroxy-2,4,7,11,14,16-hexaoxa-3λ^5,12λ^5-diphosphatricyclo[13.2.1.0^6,10]octadecane-3,12-dione] | 8 °C | 5 nM | 16.6 °C
Nc1nc2c(ncn2[C@@H]2O[C@@H]3OCP(=O)(O)O[C@@H]4[C@@H](OCP(=O)(O)O[C@@H]2[C@@H]3O)O[C@@H](n2cnc3c(N)ncnc32)[C@@H]4O)c(=O)[nH]1 [Compound 44, (1R,6R,8R,9R,10S,15R,17R,18S)-17-(2-amino-6-oxo-6,9-dihydro-1H-purin-9-yl)-8-(6-amino-9H-purin-9-yl)-3,9,12,18-tetrahydroxy-2,5,7,11,14,16-hexaoxa-3λ^5,12λ^5-diphosphatricyclo[13.2.1.0^6,10]octadecane-3,12-dione] | 2.6 °C | 330 nM | 10.3 °C

Results, then the compound that gave them:

ΔTm at 150 µM (WT STING [1]) | EC50 (WT STING [2]) | ΔTm at 150 µM (AQ STING (G230A-R293Q)) | SMILES
18.7 °C | 10 nM | 25.3 °C | Nc1nc2c(ncn2[C@@H]2O[C@@H]3OCP(=O)(O)O[C@H]4[C@H](O)[C@H](n5cnc6c(N)ncnc65)O[C@@H]4COP(=O)(O)OC2C3O)c(=O)[nH]1 (stereo partly drawn) [Compound 45, (6R,8R,9S,10S,15R,17R)-17-(2-amino-6-oxo-6,9-dihydro-1H-purin-9-yl)-8-(6-amino-9H-purin-9-yl)-3,9,12,18-tetrahydroxy-2,4,7,11,14,16-hexaoxa-3λ^5,12λ^5-diphosphatricyclo[13.2.1.0^6,10]octadecane-3,12-dione]
18.7 °C | 10 nM | 26.2 °C | Nc1nc2c(ncn2[C@@H]2O[C@@H]3OCP(=O)(O)O[C@H]4[C@@H](F)[C@H](n5cnc6c(N)ncnc65)O[C@@H]4COP(=O)(O)O[C@@H]2[C@@H]3O)c(=O)[nH]1 [Compound 46, (1R,6R,8R,9R,10R,15R,17R,18S)-17-(2-amino-6-oxo-6,9-dihydro-1H-purin-9-yl)-8-(6-amino-9H-purin-9-yl)-9-fluoro-3,12,18-trihydroxy-2,4,7,11,14,16-hexaoxa-3λ^5,12λ^5-diphosphatricyclo[13.2.1.0^6,10]octadecane-3,12-dione]
3.4 °C | 100 nM | 10.8 °C | Nc1nc2c(ncn2[C@@H]2O[C@@H]3OCP(=O)(O)O[C@H]4[C@@H](O)[C@H](n5ccc6c(N)ncnc65)O[C@@H]4COP(=O)(O)O[C@@H]2[C@@H]3O)c(=O)[nH]1 [Compound 47, (1R,6R,8R,9R,10S,15R,17R,18S)-17-(2-amino-6-oxo-6,9-dihydro-1H-purin-9-yl)-8-{4-amino-7H-pyrrolo[2,3-d]pyrimidin-7-yl}-3,9,12,18-tetrahydroxy-2,4,7,11,14,16-hexaoxa-3λ^5,12λ^5-diphosphatricyclo[13.2.1.0^6,10]octadecane-3,12-dione]
3.9 °C | 170 nM | 11.6 °C | Nc1ncc2ncn([C@@H]3O[C@@H]4COP(=O)(O)O[C@@H]5[C@H](O)[C@@H](OCP(=O)(O)O[C@H]4[C@H]3O)O[C@H]5n3cnc4c(=O)[nH]c(N)nc43)c2n1 [Compound 48, (1R,6R,8R,9R,10S,15R,17R,18S)-17-(2-amino-6-oxo-6,9-dihydro-1H-purin-9-yl)-8-(2-amino-9H-purin-9-yl)-3,9,12,18-tetrahydroxy-2,4,7,11,14,16-hexaoxa-3λ^5,12λ^5-diphosphatricyclo[13.2.1.0^6,10]octadecane-3,12-dione]
3.8 °C | 150 nM | 9.3 °C | CNc1ncnc2c1ncn2[C@@H]1O[C@@H]2COP(=O)(O)O[C@@H]3[C@H](O)[C@@H](OCP(=O)(O)O[C@H]2[C@H]1O)O[C@H]3n1cnc2c(=O)[nH]c(N)nc21 [Compound 49, (1R,6R,8R,9R,10S,15R,17R,18S)-17-(2-amino-6-oxo-6,9-dihydro-1H-purin-9-yl)-3,9,12,18-tetrahydroxy-8-[6-(methylamino)-9H-purin-9-yl]-2,4,7,11,14,16-hexaoxa-3λ^5,12λ^5-diphosphatricyclo[13.2.1.0^6,10]octadecane-3,12-dione]
